Results: US20260078341A1, “TREATMENT OF CANCER USING CHIMERIC ANTIGEN RECEPTOR” (Novartis AG, priority 2014, published 2026)
Values joined by “and” are separate entries in the source; they are usually repeats but may differ in a detail not shown here. Equal values may be shown once. Read-outs that look alike come from different tables or passages of the source.

What was measured:
[1] = Exercise and energy in elderly subjects; format: in vivo, human
[2] = tested on: PD-1 positive CD4 and CD8 T cells; format: in vivo, human
[3] = tested on: influenza vaccine strains; experiment: Primary endpoint: HI GMT ratio relative to placebo in at least 2 of 3 influenza vaccine strains; format: in vivo, human; details: ITT population
Procedure: The ability of RAD001 to improve immune function in elderly volunteers was evaluated by measuring the serologic response to the 2012 seasonal influenza vaccine. The hemagglutination inhibition (HI) geometric mean titers (GMT) to each of the 3 influenza vaccine strains at baseline and 4 weeks after influenza vaccination are provided in Table 6. The primary analysis variable was the HI GMT ratio (4 weeks post vaccination/baseline). […] This endpoint was chosen because a 1.2-fold increase in the influenza GMT ratio induced by the MF-59 vaccine adjuvant was associated with a decrease in influenza illness (Iob, A et al. (2005) Epidemiol Infect 133:687-693).
Elderly volunteers >=65 years of age were randomized to one of the 3 RAD001 treatment groups (50 subjects per arm) or placebo (20 subjects per arm). Subjects were treated with study drug for 6 weeks, given a 2 week break, and then received influenza (Aggrippal, Novartis) and pneumoccal (Pneumovax 23, Merck), vaccinations. Response to influenza vaccination was assessed by measuring the geometric mean titers (GMTs) by hemagglutination inhibition assay to the 3 influenza strains (H1N1, H3N2 and B influenza subtypes) in the influenza vaccine 4 weeks after vaccination. […] Antibody titers to 7 of the serotypes were measured in our subjects.

[4] = tested on: A/H1N1/California/07/2009; experiment: Anti-influenza IgG and IgM levels in serum; format: in vivo, human; details: 4 weeks after influenza vaccination
Procedure: The trial was observer-blind because the placebo in the RAD001 0.5 mg daily and 20 mg weekly cohorts differed slightly from the RAD001 tablets in those cohorts. […] The treatment duration for all cohorts was 6 weeks during which time subjects underwent safety evaluations in the clinic every 2 weeks. After subjects had been dosed for 4 weeks, RAD001 steady state levels were measured pre-dose and at one hour post dose. […] Antibody titers to the 3 influenza vaccine strains as well as to 2 heterologous strains (A/H1N1 strain A/New Jersy/8/76 and A/H3N2 strain A/Victoria/361/11) were measured by standard hemagglutination inhibition assay (Kendal, A P et al. (1982) Concepts and procedures for laboratory-based influenza surveillance. Atlanta: Centers for Disease Control and Prevention B17-B35). Levels of IgG and IgM specific for the A/H1N1/California/07/2009 were measured in serum samples taken before and 4 weeks after influenza vaccination as described previously (Spensieri, F. et al. (2013) Proc. Natl. Acad. Sci. USA 110:14330-14335). Results were expressed as fluorescence intensity.

[5] = for Treatment-related AE: Blood cholesterol increased / Treatment-related AE: Conjunctivitis / Treatment-related AE: Diarrhea / Treatment-related AE: Dry mouth / Treatment-related AE: Dyspepsia / Treatment-related AE: Erythema / Treatment-related AE: Fatigue / Treatment-related AE: Headache / Treatment-related AE: Insomnia / Treatment-related AE: Limb discomfort / Treatment-related AE: Low density lipoprotein increased / Treatment-related AE: Mouth ulceration / Treatment-related AE: Mucosal inflammation / Treatment-related AE: Neutropenia / Treatment-related AE: Oral pain / Treatment-related AE: Paresthesia oral / Treatment-related AE: Pruritus / Treatment-related AE: Stomatitis / Treatment-related AE: Thrombocytopenia / Treatment-related AE: Tongue ulceration / Treatment-related AE: Urinary tract infection / Treatment-related AEs: Patients with AE(s) / Treatment-related AEs: Total AE(s): N = 53

For `CO[C@H]1C[C@@H]2CC[C@@H](C)[C@@](O)(O2)C(=O)C(=O)N2CCCC[C@H]2C(=O)O[C@H]([C@H](C)C[C@@H]2CC[C@@H](OCCO)[C@H](OC)C2)CC(=O)[C@H](C)/C=C(\C)[C@@H](O)[C@@H](OC)C(=O)[C@H](C)C[C@H](C)/C=C/C=C/C=C/1C` [RAD001, (1R,9S,12S,15R,16E,18R,19R,21R,23S,24E,26E,28E,30S,32S,35R)-1,18-dihydroxy-12-{(1R)-2-[(1S,3R,4R)-4-(2-hydroxyethoxy)-3-methoxycyclohexyl]-1-methylethyl}-19,30-dimethoxy-15,17,21,23,29,35-hexamethyl-11,36-dioxa-4-azatricyclo[30.3.1.0^4,9]hexatriaconta-16,24,26,28-tetraene-2,3,10,14,20-pentaone], the exercise and energy [1] was “increases in exercise and energy”, the “decrease in PD-1 positive CD8 T cells compared to placebo cohort” value ([2]; in vivo) was 37.4% and 41.4% and the “decrease in PD-1 positive CD4 T cells compared to placebo cohort” value ([2]; week 6, pooled RAD cohort (n=84), p=0.03) was 30.2%. For the same compound, the “decrease in PD-1 positive CD4 T cells compared to placebo cohort” value ([2]; week 12, pooled RAD cohort, p=0.05) was 32.7%, the “primary endpoint of the study (HI GMT ratio)” value ([3]; 0.5 mg daily or 5 mg weekly) was “met the GMT primary endpoint” and the “primary endpoint of the study (HI GMT ratio)” value ([3]; 20 mg weekly) was “but not higher dose (20 mg weekly) cohort met the primary endpoint”. For the same compound, the “post-vaccination anti-influenza IgM and IgG levels, RAD001 versus placebo” value [4] was “did not differ”, the “Treatment-related AE: Blood cholesterol increased” value ([5]; RAD001 0.5 mg daily) was 2 (3.8%) n (%) and the “Treatment-related AE: Conjunctivitis” value ([5]; RAD001 0.5 mg daily) was 0 n (%). The “Treatment-related AE: Diarrhea” value ([5]; RAD001 0.5 mg daily) was 1 (1.9%) n (%), the “Treatment-related AE: Dry mouth” value ([5]; RAD001 0.5 mg daily) was 0 n (%) and the “Treatment-related AE: Dyspepsia” value ([5]; RAD001 0.5 mg daily) was 0 n (%). The “Treatment-related AE: Erythema” value ([5]; RAD001 0.5 mg daily) was 0 n (%), the “Treatment-related AE: Fatigue” value ([5]; RAD001 0.5 mg daily) was 0 n (%) and the “Treatment-related AE: Headache” value ([5]; RAD001 0.5 mg daily) was 0 n (%). The “Treatment-related AE: Insomnia” value ([5]; RAD001 0.5 mg daily) was 1 (1.9%) n (%), the “Treatment-related AE: Limb discomfort” value ([5]; RAD001 0.5 mg daily) was 0 n (%) and the “Treatment-related AE: Low density lipoprotein increased” value ([5]; RAD001 0.5 mg daily) was 2 (3.8%) n (%). For the same compound, the “Treatment-related AE: Mouth ulceration” value ([5]; RAD001 0.5 mg daily) was 6 (11.3%) n (%), the “Treatment-related AE: Mucosal inflammation” value ([5]; RAD001 0.5 mg daily) was 0 n (%) and the “Treatment-related AE: Neutropenia” value ([5]; RAD001 0.5 mg daily) was 0 n (%). For the same compound, the “Treatment-related AE: Oral pain” value ([5]; RAD001 0.5 mg daily) was 0 n (%), the “Treatment-related AE: Paresthesia oral” value ([5]; RAD001 0.5 mg daily) was 2 (3.8%) n (%) and the “Treatment-related AE: Pruritus” value ([5]; RAD001 0.5 mg daily) was 0 n (%). The “Treatment-related AE: Stomatitis” value ([5]; RAD001 0.5 mg daily) was 0 n (%), the “Treatment-related AE: Thrombocytopenia” value ([5]; RAD001 0.5 mg daily) was 0 n (%) and the “Treatment-related AE: Tongue ulceration” value ([5]; RAD001 0.5 mg daily) was 3 (5.7%) n (%). The “Treatment-related AE: Urinary tract infection” value ([5]; RAD001 0.5 mg daily) was 0 n (%), the “Treatment-related AEs: Patients with AE(s)” value ([5]; RAD001 0.5 mg daily) was 22 (41.5%) n (%) and the “Treatment-related AEs: Total AE(s)” value ([5]; RAD001 0.5 mg daily) was 35 n (%). For the same compound, the “Treatment-related AE: Blood cholesterol increased” value ([5]; RAD001 5 mg weekly) was 2 (3.8%) n (%), the “Treatment-related AE: Conjunctivitis” value ([5]; RAD001 5 mg weekly) was 2 (3.8%) n (%) and the “Treatment-related AE: Diarrhea” value ([5]; RAD001 5 mg weekly) was 4 (7.5%) n (%). For the same compound, the “Treatment-related AE: Dry mouth” value ([5]; RAD001 5 mg weekly) was 0 n (%), the “Treatment-related AE: Dyspepsia” value ([5]; RAD001 5 mg weekly) was 3 (5.7%) n (%) and the “Treatment-related AE: Erythema” value ([5]; RAD001 5 mg weekly) was 2 (3.8%) n (%). The “Treatment-related AE: Fatigue” value ([5]; RAD001 5 mg weekly) was 2 (3.8%) n (%), the “Treatment-related AE: Headache” value ([5]; RAD001 5 mg weekly) was 2 (3.8%) n (%) and the “Treatment-related AE: Insomnia” value ([5]; RAD001 5 mg weekly) was 2 (3.8%) n (%). The “Treatment-related AE: Limb discomfort” value ([5]; RAD001 5 mg weekly) was 2 (3.8%) n (%), the “Treatment-related AE: Low density lipoprotein increased” value ([5]; RAD001 5 mg weekly) was 1 (1.9%) n (%) and the “Treatment-related AE: Mouth ulceration” value ([5]; RAD001 5 mg weekly) was 2 (3.8%) n (%). The “Treatment-related AE: Mucosal inflammation” value ([5]; RAD001 5 mg weekly) was 0 n (%), the “Treatment-related AE: Neutropenia” value ([5]; RAD001 5 mg weekly) was 0 n (%) and the “Treatment-related AE: Oral pain” value ([5]; RAD001 5 mg weekly) was 2 (3.8%) n (%). The “Treatment-related AE: Paresthesia oral” value ([5]; RAD001 5 mg weekly) was 0 n (%), the “Treatment-related AE: Pruritus” value ([5]; RAD001 5 mg weekly) was 2 (3.8%) n (%) and the “Treatment-related AE: Stomatitis” value ([5]; RAD001 5 mg weekly) was 0 n (%). The “Treatment-related AE: Thrombocytopenia” value ([5]; RAD001 5 mg weekly) was 0 n (%), the “Treatment-related AE: Tongue ulceration” value ([5]; RAD001 5 mg weekly) was 1 (1.9%) n (%) and the “Treatment-related AE: Urinary tract infection” value ([5]; RAD001 5 mg weekly) was 0 n (%). The “Treatment-related AEs: Patients with AE(s)” value ([5]; RAD001 5 mg weekly) was 20 (37.7%) n (%), the “Treatment-related AEs: Total AE(s)” value ([5]; RAD001 5 mg weekly) was 46 n (%) and the “Treatment-related AE: Blood cholesterol increased” value ([5]; RAD001 20 mg weekly) was 2 (3.8%) n (%). For the same compound, the “Treatment-related AE: Conjunctivitis” value ([5]; RAD001 20 mg weekly) was 0 n (%), the “Treatment-related AE: Diarrhea” value ([5]; RAD001 20 mg weekly) was 1 (1.9%) n (%) and the “Treatment-related AE: Dry mouth” value ([5]; RAD001 20 mg weekly) was 2 (3.8%) n (%). For the same compound, the “Treatment-related AE: Dyspepsia” value ([5]; RAD001 20 mg weekly) was 2 (3.8%) n (%), the “Treatment-related AE: Erythema” value ([5]; RAD001 20 mg weekly) was 0 n (%) and the “Treatment-related AE: Fatigue” value ([5]; RAD001 20 mg weekly) was 4 (7.5%) n (%). For the same compound, the “Treatment-related AE: Headache” value ([5]; RAD001 20 mg weekly) was 9 (17.0%) n (%), the “Treatment-related AE: Insomnia” value ([5]; RAD001 20 mg weekly) was 1 (1.9%) n (%) and the “Treatment-related AE: Limb discomfort” value ([5]; RAD001 20 mg weekly) was 0 n (%). For the same compound, the “Treatment-related AE: Low density lipoprotein increased” value ([5]; RAD001 20 mg weekly) was 2 (3.8%) n (%), the “Treatment-related AE: Mouth ulceration” value ([5]; RAD001 20 mg weekly) was 9 (17.0%) n (%) and the “Treatment-related AE: Mucosal inflammation” value ([5]; RAD001 20 mg weekly) was 2 (3.8%) n (%). The “Treatment-related AE: Neutropenia” value ([5]; RAD001 20 mg weekly) was 3 (5.7%) n (%), the “Treatment-related AE: Oral pain” value ([5]; RAD001 20 mg weekly) was 1 (1.9%) n (%) and the “Treatment-related AE: Paresthesia oral” value ([5]; RAD001 20 mg weekly) was 0 n (%). The “Treatment-related AE: Pruritus” value ([5]; RAD001 20 mg weekly) was 1 (1.9%) n (%), the “Treatment-related AE: Stomatitis” value ([5]; RAD001 20 mg weekly) was 2 (3.8%) n (%) and the “Treatment-related AE: Thrombocytopenia” value ([5]; RAD001 20 mg weekly) was 2 (3.8%) n (%). The “Treatment-related AE: Tongue ulceration” value ([5]; RAD001 20 mg weekly) was 0 n (%), the “Treatment-related AE: Urinary tract infection” value ([5]; RAD001 20 mg weekly) was 2 (3.8%) n (%) and the “Treatment-related AEs: Patients with AE(s)” value ([5]; RAD001 20 mg weekly) was 27 (50.9%) n (%). The “Treatment-related AEs: Total AE(s)” value ([5]; RAD001 20 mg weekly) was 109 n (%) and the tolerability ([5]; elderly volunteers, 6 weeks, particularly 0.5 mg daily and 5 mg weekly) was “well tolerated”.
